Key:
[1] = target: T1, E. coli MTAN (Escherichia coli, UniProt P0AF12); assay: Inhibition constants with E. coli MTAN (xanthine oxidase-coupled assay); format: biochemical; settings: 25° C., pH 7.5, MTA as substrate
T1 construct: made in house
Description: (§1) E. coli MTAN and human MTAP were obtained according to the reported methods (Singh, et al, Biochemistry 44, 11647-11659 (2005); Singh and Schramm J. Am. Chem. Soc. 128, 14691-14696 (2006). The MTAN gene sequences from N. meningitides MC58 and H. pylori J99 were amplified from genomic DNA (ATCC) and cloned into a modified pET-32 vector to direct high-level expression of MTAN with a non-cleavable N-terminal 6His tag. 1.5 L cultures of BL21(DE3) harbouring MTAN constructs were induced with 0.5 mM IPTG for 20 hours at 25° C. with vigorous shaking. Cell pellets were washed and lysed in 40 mL lysis buffer (25 mM HEPES, 0.5M NaCl, 10 mM imidazole pH 7.6, protease inhibitors and 0.25 mM TCEP) with the use of a cell disrupter at 15K psi. After removal of cell debris by centrifugation, the soluble cell lysates were loaded onto nickel-charged chelating sepharose (GE Healthcare) and washed with lysis buffer containing 20-150 mM imidazole. The 6His-MTANs were eluted in 250 mM imidazole, desalted using a Sephadex G-15 (GE Healthcare) gel filtration column, equilibrated with low salt buffer (100 mM HEPES, 30 mM KCL, pH 7.6) and concentrated to 40 mg/mL.
(§2) Inhibitor concentrations were obtained from the absorbance at 274 nm with extinction coefficient of 8.5 mM^−1 cm^−1 for 9-deazaadenine moiety.
(§3) MTAN activities were assayed as reported previously (Singh et al (2006) Biochemistry 45, 12929-12941; Singh, et al (2005) J. Biol. Chem. 280, 18265-18273). Briefly, all experiments were carried out at 25° C., in 1 mL total reaction volume containing 100 mM HEPES buffer, pH 7.5 and 50 mM KCl with 5′-deoxymethylthioadenosine (MTA) as substrate. Kinetic constants (kcat and Km) were determined by monitoring MTA hydrolysis at 274 nm where ΔεMTA=1.6 mM^−1 cm^−1. For measuring dissociation constant (Kd) of inhibitors, a xanthine oxidase-coupled assay was carried out. In this assay, saturating levels (1-2 mM) of MTA and various concentrations of inhibitor were mixed with xanthine oxidase (0.5 unit/mL), which is used to convert the MTAN product adenine to 2,8-dihydroxyadenine (ε2,8-dihydroxadenine=15.2 mM^−1 cm^−1 at 293 nm). Reactions were initiated by the addition of 8-10 nM MTAN, and the absorbance at 293 was monitored. Control experiments were carried out in the absence of either inhibitor or MTAN.
(§4) [formula] where vs′ and vs are steady state rates in the presence, and absence of inhibitor, respectively; Km is substrate Michaelis constant which was obtained as described above; [S] and [I] are the concentrations of the substrate MTA and inhibitor, respectively. […] All data fitting was carried out with KaleidaGraph™ ver. 3.5 (Synergy Software).

[2] = target: N. meningitides MTAN (Neisseria meningitidis, UniProt Q9K054); assay: Inhibition constants with N. meningitides MTAN (xanthine oxidase-coupled assay); format: biochemical, N. meningitides MC58; settings: 25° C., pH 7.5, MTA as substrate
Sequence of N. meningitides MTAN (Q9K054 entry or part of it): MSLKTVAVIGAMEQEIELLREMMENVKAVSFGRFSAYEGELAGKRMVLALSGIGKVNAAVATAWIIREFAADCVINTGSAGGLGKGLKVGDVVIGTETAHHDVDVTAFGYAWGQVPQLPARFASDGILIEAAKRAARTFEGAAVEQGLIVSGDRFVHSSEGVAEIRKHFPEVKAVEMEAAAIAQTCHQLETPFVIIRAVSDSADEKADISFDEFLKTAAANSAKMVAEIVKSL
Description: as §1, §2, §3, §4

[3] = target: T2, human MTAP (Homo sapiens, UniProt Q13126); assay: Inhibition constants with MTAP (continuous spectrophotometric assay); format: biochemical
T2 construct: made in house
T2 sequence (Q13126 1-283): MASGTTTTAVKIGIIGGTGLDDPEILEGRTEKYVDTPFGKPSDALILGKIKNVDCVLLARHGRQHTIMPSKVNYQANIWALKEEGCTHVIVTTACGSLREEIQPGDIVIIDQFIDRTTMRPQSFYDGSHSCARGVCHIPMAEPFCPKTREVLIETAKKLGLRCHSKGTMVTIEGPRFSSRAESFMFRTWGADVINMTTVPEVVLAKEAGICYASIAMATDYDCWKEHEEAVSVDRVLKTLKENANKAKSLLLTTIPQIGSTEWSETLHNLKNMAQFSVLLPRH
Description: After removal of cell debris by centrifugation, the soluble cell lysates were loaded onto nickel-charged chelating sepharose (GE Healthcare) and washed with lysis buffer containing 20-150 mM imidazole. The 6His-MTANs were eluted in 250 mM imidazole, desalted using a Sephadex G-15 (GE Healthcare) gel filtration column, equilibrated with low salt buffer (100 mM HEPES, 30 mM KCL, pH 7.6) and concentrated to 40 mg/mL.
Continuous spectrophotometric assays were used to characterize the inhibitors of the invention and […] inhibition of MTAP.

T1 sequence (P0AF12 whole entry): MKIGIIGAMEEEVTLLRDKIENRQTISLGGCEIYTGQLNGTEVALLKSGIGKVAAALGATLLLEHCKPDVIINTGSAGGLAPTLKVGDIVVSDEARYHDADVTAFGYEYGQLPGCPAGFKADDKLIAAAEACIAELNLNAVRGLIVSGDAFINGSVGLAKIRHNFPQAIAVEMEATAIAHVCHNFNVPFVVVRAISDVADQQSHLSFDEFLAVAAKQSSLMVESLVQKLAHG

Compound	Kd [1] [nM]	Kd [2] [nM]	Kd [3] [nM]
CSC[C@@H](CNCc1c[nH]c2c(N)ncnc12)[C@@H](O)CO (racemic) [Example 3, (2RS,3SR)-4-[(4-amino-5H-pyrrolo[3,2-d]pyrimidin-7-yl)methylamino]-3-(methylthiomethyl)butane-1,2-diol]	9 ± 2	5 ± 1	–
CSC[C@H](O)[C@@H](CO)CNCc1c[nH]c2c(N)ncnc12 (racemic) [Example 9, (2RS,3RS)-2-{[(4-amino-5H-pyrrolo[3,2-d]pyrimidin-7-yl)methylamino]methyl}-4-(methylthio)butane-1,3-diol]	25 ± 2	12.8 ± 0.9	278 ± 27
CSC[C@@H](O)[C@@H](CO)N(C)Cc1c[nH]c2c(N)ncnc12 [Example 8, (2R,3S)-2-(((4-amino-5H-pyrrolo[3,2-d]pyrimidin-7-yl)methyl)(methyl)amino)-4-(methylthio)butane-1,3-diol]	62 ± 5	19.3 ± 0.3	88 ± 21
CSC[C@@H](CN(C)Cc1c[nH]c2c(N)ncnc12)[C@@H](O)CO [Example 4, (2R,3S)-4-(((4-amino-5H-pyrrolo[3,2-d]pyrimidin-7-yl)methyl)(methyl)amino)-3-(methylthiomethyl)butane-1,2-diol]	2300 ± 600	–	–
CSC[C@H](CO)N[C@H](CO)c1c[nH]c2c(N)ncnc12 [Example 12, (S)-2-((S)-1-(4-amino-5H-pyrrolo[3,2-d]pyrimidin-7-yl)-2-hydroxyethylamino)-3-(methylthio)propan-1-ol]	154 ± 15	47 ± 4	130 ± 20
CSC[C@H](O)[C@@H](CO)CN(C)Cc1c[nH]c2c(N)ncnc12 (racemic) [Example 10, (2RS,3RS)-2-((((4-amino-5H-pyrrolo[3,2-d]pyrimidin-7-yl)methyl)(methyl)amino)methyl)-4-(methylthio)butane-1,3-diol]	65 ± 6	132 ± 9	–
CSC[C@@H](O)CNCc1c[nH]c2c(N)ncnc12 [Example 2, (S)-1-((4-amino-5H-pyrrolo[3,2-d]pyrimidin-7-yl)methylamino)-3-(methylthio)propan-2-ol]	4 ± 0.5	3.6 ± 0.4	60 ± 8
CSC[C@H](O)[C@@H](O)CN(C)Cc1c[nH]c2c(N)ncnc12 [Example 11, (2S,3R)-1-(((4-amino-5H-pyrrolo[3,2-d]pyrimidin-7-yl)methyl)(methyl)amino)-4-(methylthio)butane-2,3-diol]	202 ± 35	–	–
CSC[C@H](O)[C@H](CO)NCc1c[nH]c2c(N)ncnc12 [Example 7, (2S,3R)-2-((4-amino-5H-pyrrolo[3,2-d]pyrimidin-7-yl)methylamino)-4-(methylthio)butane-1,3-diol]	–	–	87 ± 11
CSCC(CO)(CO)NCc1c[nH]c2c(N)ncnc12 [Example 1, 2-((4-amino-5H-pyrrolo[3,2-d]pyrimidin-7-yl)methylamino)-2-(methylthiomethyl)propane-1,3-diol]	5.8 ± 0.8	4 ± 2	34 ± 24
